# Source: ChEMBL document CHEMBL2074216, “Novel camptothecin analogues that circumvent ABCG2-associated drug resistance in human tumor cells” (Int J Cancer, 2004)
# Target: T1, Broad substrate specificity ATP-binding cassette transporter ABCG2 (Homo sapiens, UniProt Q9UNQ0)
# T1 sequence (Q9UNQ0 whole entry): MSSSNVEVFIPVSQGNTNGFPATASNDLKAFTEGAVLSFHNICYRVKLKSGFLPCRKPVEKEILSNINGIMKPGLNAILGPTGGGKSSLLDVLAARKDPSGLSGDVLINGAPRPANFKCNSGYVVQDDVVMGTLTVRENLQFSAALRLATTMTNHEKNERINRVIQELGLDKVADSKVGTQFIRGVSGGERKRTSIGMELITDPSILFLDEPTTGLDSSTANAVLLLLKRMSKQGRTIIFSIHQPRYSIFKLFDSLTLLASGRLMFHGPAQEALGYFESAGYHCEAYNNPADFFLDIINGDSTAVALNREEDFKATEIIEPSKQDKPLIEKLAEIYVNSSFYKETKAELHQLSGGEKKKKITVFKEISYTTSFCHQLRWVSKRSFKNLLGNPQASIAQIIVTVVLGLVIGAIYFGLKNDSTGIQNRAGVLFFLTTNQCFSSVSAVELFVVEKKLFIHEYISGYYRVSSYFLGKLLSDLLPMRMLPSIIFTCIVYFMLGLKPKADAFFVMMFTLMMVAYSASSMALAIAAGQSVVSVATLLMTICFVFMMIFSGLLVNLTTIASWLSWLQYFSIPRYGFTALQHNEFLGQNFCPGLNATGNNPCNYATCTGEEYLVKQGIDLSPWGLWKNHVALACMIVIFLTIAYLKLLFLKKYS
# Assay: TP_TRANSPORTER: uptake in BCRP-expressing PC-6 cells
# Type: functional, cell-based
row,Structure (SMILES),Activity
1,CCc1c2c(nc3ccc(O)cc13)-c1cc3c(c(=O)n1C2)COC(=O)[C@]3(O)CC [7-ETHYL-10-HYDROXYCAMPTOTHECIN],substrate []
2,CCc1c2c(nc3ccc(Cl)cc13)-c1cc3c(c(=O)n1C2)COC(=O)[C@]3(O)CC,substrate []
3,CCc1c2c(nc3cc(F)c(OC)cc13)-c1cc3c(c(=O)n1C2)COC(=O)[C@]3(O)CC,substrate []
4,CCc1c2c(nc3cc(F)c(O)cc13)-c1cc3c(c(=O)n1C2)COC(=O)[C@]3(O)CC,substrate []
5,CCc1c2c(nc3cc(Br)ccc13)-c1cc3c(c(=O)n1C2)COC(=O)[C@]3(O)CC,substrate []
6,CCc1c2c(nc3cc(O)ccc13)-c1cc3c(c(=O)n1C2)COC(=O)[C@]3(O)CC,substrate []
7,CCc1c2c(nc3ccc(N)cc13)-c1cc3c(c(=O)n1C2)COC(=O)[C@]3(O)CC,substrate []
